These results are taken from US9145435B2, “Urea compounds” (Eli Lilly and Company, priority 2013, dated 2015).

Experiment [1] addresses T1, human SGLT1 (Homo sapiens, UniProt P13866).
T1 sequence (P13866 1-664): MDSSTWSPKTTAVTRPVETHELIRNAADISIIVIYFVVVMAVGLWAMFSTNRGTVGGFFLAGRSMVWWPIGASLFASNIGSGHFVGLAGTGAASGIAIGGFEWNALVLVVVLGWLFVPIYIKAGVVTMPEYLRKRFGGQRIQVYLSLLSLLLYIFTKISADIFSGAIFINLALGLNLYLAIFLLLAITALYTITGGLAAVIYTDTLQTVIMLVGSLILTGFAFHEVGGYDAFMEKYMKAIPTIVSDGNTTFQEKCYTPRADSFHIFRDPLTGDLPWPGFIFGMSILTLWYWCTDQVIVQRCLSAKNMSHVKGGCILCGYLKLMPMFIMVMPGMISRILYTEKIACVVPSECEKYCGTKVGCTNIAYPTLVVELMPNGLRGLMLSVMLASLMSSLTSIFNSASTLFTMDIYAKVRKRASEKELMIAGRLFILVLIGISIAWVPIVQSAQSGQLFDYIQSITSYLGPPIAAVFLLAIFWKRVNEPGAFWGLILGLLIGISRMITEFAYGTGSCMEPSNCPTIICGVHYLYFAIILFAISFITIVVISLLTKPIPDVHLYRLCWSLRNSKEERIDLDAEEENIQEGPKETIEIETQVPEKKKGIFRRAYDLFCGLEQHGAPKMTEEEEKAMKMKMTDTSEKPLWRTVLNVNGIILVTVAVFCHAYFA
As to the kind of experiment: Sodium-dependent 14C-AMG uptake assay in CHO-K1 cells expressing human SGLT1. It counts as cell-based. Particulars: n=9. The source says:
(§1) The cDNA encoding human SGLT1 (slc5a1, NM_000343) and mouse SGLT1 (slc5a1, NM_019810.4) are purchased from Openbiosystems. The cDNA is cloned into pcDNA3.1+ for mammalian expression and is stably transfected into Chinese hamster ovary (CHO)-K1 cells using standard mammalian transfection procedures. An SGLT-expressing sub-clone of each over-expressing cell line is selected based on resistance to neomycin (Geneticin, Invitrogen) and activity in the ^14C-a-methyl-D-glucopyranoside (^14C-AMG) uptake assay (see below). Stable SGLT-expressing cells are maintained using standard cell culture techniques.
(§2) The SGLT activity is measured as sodium-dependent ^14C-AMG uptake in the above cell lines described as follows. One hundred […] of culture medium containing 30,000 cells are seeded to each well of a 96-well BioCoat poly-D-lysine plate (Becton Dickson) and cultured at 37° C. overnight. The culture medium is aspirated and cells are washed twice with […] of Reaction Buffer (140 mM NaCl, 2 mM KCl, 1 mM CaCl2, MgCl2, and 14 mM N-2-hydroethylpiperrazine-N′-2-ethanesulfonic acid (Hepes), pH 7.5). The excess buffer is tapped out onto paper towels. Thirty-five […] of Reaction Buffer are added to each well. […] After mixing, the scintillation signal in the plate is counted in a MicroBeta (PerkinElmer). […]

Experiment [2] deals with T2, mouse SGLT1 (Mus musculus, UniProt Q8C3K6).
T2 sequence (Q8C3K6 1-665): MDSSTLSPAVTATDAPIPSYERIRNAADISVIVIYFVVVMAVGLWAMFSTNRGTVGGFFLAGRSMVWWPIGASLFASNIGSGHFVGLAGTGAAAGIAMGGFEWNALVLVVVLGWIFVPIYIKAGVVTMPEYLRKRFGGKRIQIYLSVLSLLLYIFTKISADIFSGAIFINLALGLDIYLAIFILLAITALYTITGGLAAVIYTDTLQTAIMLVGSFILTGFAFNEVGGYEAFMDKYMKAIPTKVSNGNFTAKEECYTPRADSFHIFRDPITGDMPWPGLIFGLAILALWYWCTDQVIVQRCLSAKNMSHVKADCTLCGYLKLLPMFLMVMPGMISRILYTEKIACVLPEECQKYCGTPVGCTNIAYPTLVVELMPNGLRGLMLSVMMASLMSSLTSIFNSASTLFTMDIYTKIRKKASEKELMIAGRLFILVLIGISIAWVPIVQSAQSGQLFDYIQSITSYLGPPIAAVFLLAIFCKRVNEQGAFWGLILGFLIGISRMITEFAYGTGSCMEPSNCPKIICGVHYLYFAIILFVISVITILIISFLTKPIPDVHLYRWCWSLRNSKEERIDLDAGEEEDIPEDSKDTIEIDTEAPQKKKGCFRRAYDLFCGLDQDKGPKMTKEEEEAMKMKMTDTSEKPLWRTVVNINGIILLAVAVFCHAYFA
As to the kind of experiment: Sodium-dependent 14C-AMG uptake assay in CHO-K1 cells expressing mouse SGLT1. Format: cell-based. As to conditions: n=6.
Source text: as §1, §2

Experiment [3] relates to C57B1/6 mice. As to the kind of experiment: Glucose lowering effects in oral glucose tolerance test (OGTT). As to conditions: for Glucose 20 Minute / Glucose 40 Minute / Glucose 60 Minute / Baseline Adjusted AUC (glucose) / Glucose Cmax / Glucose Tmax / Glucose 0 Minute: OGTT, 10 mg/kg oral, Mean ± SEM; for Glucose 20 Minute: 20 min after dextrose; for Glucose 40 Minute: 40 min after dextrose; for Glucose 60 Minute: 60 min after dextrose; for Glucose 0 Minute: baseline before 3 g/kg dextrose. It counts as in vivo, mouse. How it is done: The test compound is formulated by adding a vehicle of 1% hydroxyethylcellulose, 0.25% Tween® 80 w/antifoam 0.05% to preweighed test compound to make a 1 mg/ml solution. The mixture is probe sonicated for approximately 1 minute. A stir bar is added, and the resulting suspension is stirred continuously throughout dosing.
One of two sets of single housed C57B1/6 mice are weighed and body weights used to determine study groups (n=5), within a working range of 26-30 g. After grouping, the mice are orally gavaged with 10 ml/kg test compound preparation or vehicle, thirty seconds apart. […] Both sets of mice are then fasted overnight by removing access to food, late afternoon before test day. The following morning, the remaining mice, are weighed and bled (via tail snip) for glucose. Study groups (n=5) are determined using fasted glucose values, within a working range of 80-100 mg/dl. After grouping, the mice are orally gavaged using the same protocol as the previous day.
At eight and eighteen hours after each respective compound treatment is started, a baseline blood sample is taken for measuring glucose (from the first animal). The animal is then immediately given an oral dose of 50% dextrose (Hospira®) at 3 g/kg. Blood samples are taken for glucose, exactly thirty seconds apart, by tail vein so that blood is collected in each animal at 20, 40 and 60 minutes after the dextrose dose.

In turn, `Cc1cccc2c1c(Cc1ccc(/C=C/CCN3CCCC4(CCN(C(=O)CNC(=O)NCC(C)C)CC4)C3)cc1)cn2[C@@H]1O[C@H](CO)[C@@H](O)[C@H](O)[C@H]1O` [Example 1, 1-isobutyl-3-[2-[4-[(E)-4-[4-[[4-methyl-1-[(2R,3R,4S,5S,6R)-3,4,5-trihydroxy-6-(hydroxymethyl)tetrahydropyran-2-yl]indol-3-yl]methyl]phenyl]but-3-enyl]-4,9-diazaspiro[5.5]undecan-9-yl]-2-oxo-ethyl]urea] came in with an IC50 in experiment [1] of 17.4 ± 14.6 nM. Also, 13.6 ± 7.3 nM corresponded to half-maximal inhibition in experiment [2] (IC50). For the same compound, in experiment [3] (8 hrs post dose), the “Glucose 20 Minute” value came to 119.1 ± 11.4 mg/dL, the “Glucose 40 Minute” value was found to be 127.7 ± 8.32 mg/dL, the “Glucose 60 Minute” value worked out at 132.6 ± 8.85 mg/dL and the “Baseline Adjusted AUC (glucose)” value amounted to 2752 ± 507 mg/dL. Further, in experiment [3] (8 hrs post dose), the “Glucose Cmax” value turned out to be 134.7 ± 8.31 mg/dL, the “Glucose Tmax” value was 48 ± 8 min and the “Glucose 0 Minute” value was 70.2 ± 5.47 mg/dL. In experiment [3] (18 hrs post dose), the “Glucose 20 Minute” value came to 116.1 ± 2.71 mg/dL, the “Glucose 40 Minute” value was 130.7 ± 4.47 mg/dL, the “Glucose 60 Minute” value stood at 124.1 ± 1.42 mg/dL and the “Baseline Adjusted AUC (glucose)” value was determined as 1792 ± 254 mg/dL. Besides, in experiment [3] (18 hrs post dose), the “Glucose Cmax” value worked out at 132.7 ± 3.27 mg/dL, the “Glucose Tmax” value amounted to 48 ± 4.9 min and the “Glucose 0 Minute” value was 87.7 ± 3.36 mg/dL. The “glucose excursion after oral bolus of 50% dextrose” value in experiment [3] (normal glycemic C57B1/6 mouse, eight or eighteen hours after administration) is given as “decrease”.
